Data taken from US9884839B2, “Inhibitors of 17Beta-hydroxysteroid dehydrogenases type 1 and type 2” (ElexoPharm GmbH, priority 2014, dated 2018).
Like-named read-outs stand apart in the source and are kept apart here.

Assays:
Format in all cases: biochemical
human 17β-HSD2 = target: T1, human 17β-HSD2 (Homo sapiens, UniProt P37059); test: Inhibition of human 17β-HSD2 (conversion of [3H]-E2 to E1); details: for inhibition at 1 µM: read-out: % inhibition h17β-HSD2 @ 1 μM; for inhibition at 0.01 µM: read-out: % inhibition h17β-HSD2 @ 10 nM
T1 construct: 17β-HSD2 was obtained from the microsomal fraction; from tissue; host or cells: human placenta, microsomal fraction
T1 sequence (P37059 1-387): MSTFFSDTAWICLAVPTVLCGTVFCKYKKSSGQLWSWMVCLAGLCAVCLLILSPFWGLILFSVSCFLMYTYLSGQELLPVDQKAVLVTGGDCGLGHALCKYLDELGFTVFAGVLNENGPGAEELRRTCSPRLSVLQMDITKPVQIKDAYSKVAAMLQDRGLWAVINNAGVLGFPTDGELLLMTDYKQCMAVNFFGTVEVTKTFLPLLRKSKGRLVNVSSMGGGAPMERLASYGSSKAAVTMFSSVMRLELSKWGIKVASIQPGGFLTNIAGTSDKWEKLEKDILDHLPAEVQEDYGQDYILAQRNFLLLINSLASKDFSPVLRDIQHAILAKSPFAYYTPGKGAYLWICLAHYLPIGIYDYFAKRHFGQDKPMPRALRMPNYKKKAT
Description: Fresh human placenta was homogenized, and cytosolic fraction and microsomes were separated by differential centrifugation at 1,000 g, 10,000 g and 150,000 g.
(§1) The conversion rate was calculated after analysis of the resulting chromatograms according to the following equation: % conversion=[% E1/(% E1+% E2)]×100

human 17β-HSD1 = target: T2, human 17β-HSD1 (Homo sapiens, UniProt P14061); test: Inhibition of human 17β-HSD1 (conversion of [3H]-E1 to E2, HPLC radioflow detection); details: for inhibition at 1 µM: read-out: % inhibition h17β-HSD1 @ 1 μM; for IC50: human placental cytosolic enzyme, E1 500 nM, NADH, Tables 1, 4-11, read-out: IC50 [nM] h17β-HSD1; for inhibition at 0.01 µM: read-out: % inhibition h17β-HSD1 @ 10 nM
T2 construct: For the partial purification of 17β-HSD1, the cytosolic fraction was precipitated with ammonium sulfate; from tissue; host or cells: human placenta, cytosolic fraction, ammonium sulfate precipitate
T2 sequence (P14061 1-328): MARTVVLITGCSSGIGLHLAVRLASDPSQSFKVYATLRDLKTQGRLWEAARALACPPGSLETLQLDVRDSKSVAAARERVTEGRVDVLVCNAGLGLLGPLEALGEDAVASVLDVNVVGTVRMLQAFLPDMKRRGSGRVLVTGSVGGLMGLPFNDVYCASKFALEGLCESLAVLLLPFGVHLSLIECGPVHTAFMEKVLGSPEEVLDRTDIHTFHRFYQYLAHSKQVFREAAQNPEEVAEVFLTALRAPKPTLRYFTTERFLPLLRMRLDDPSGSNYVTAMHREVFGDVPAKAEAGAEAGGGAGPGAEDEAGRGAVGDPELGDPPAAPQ

mouse 17β-HSD2 = target: T3, mouse 17β-HSD2 (Mus musculus, UniProt P51658); test: Inhibition of mouse 17β-HSD2 (liver microsomal fraction); details: for inhibition at 0.05 µM: read-out: % inhibition m17β-HSD2 @ 50 nM
T3 construct: The pellet fractions containing the microsomal 17β-HSD2 were used for the determination of E1 formation; from tissue; host or cells: mouse liver, microsomal fraction
T3 sequence (P51658 1-381): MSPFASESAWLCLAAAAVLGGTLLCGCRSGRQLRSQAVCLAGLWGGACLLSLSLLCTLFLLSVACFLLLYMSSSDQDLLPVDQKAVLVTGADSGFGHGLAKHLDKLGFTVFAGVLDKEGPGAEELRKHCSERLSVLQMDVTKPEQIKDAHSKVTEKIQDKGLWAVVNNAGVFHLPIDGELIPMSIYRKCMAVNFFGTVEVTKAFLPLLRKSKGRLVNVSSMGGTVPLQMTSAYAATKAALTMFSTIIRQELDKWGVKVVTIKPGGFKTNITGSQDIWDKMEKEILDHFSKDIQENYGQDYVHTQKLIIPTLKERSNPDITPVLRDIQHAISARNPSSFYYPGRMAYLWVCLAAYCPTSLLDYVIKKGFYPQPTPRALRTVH
Description: Microsomal 17β-HSD2 fractions were obtained from mouse or rat liver. Fresh liver tissues were processed as described for the human placental 17β-HSD2 preparation. The pellet fractions containing the microsomal 17β-HSD2 were used for the determination of E1 formation.
as §1

mouse 17β-HSD1 = target: T4, mouse 17β-HSD1 (Mus musculus, UniProt P51656); test: Inhibition of mouse 17β-HSD1 (recombinant, HEK293 lysate)
T4 construct: made in house; host or cells: HEK293 cells, transient transfection; 1,000 g supernatant of the cell lysate
T4 sequence (P51656 1-344): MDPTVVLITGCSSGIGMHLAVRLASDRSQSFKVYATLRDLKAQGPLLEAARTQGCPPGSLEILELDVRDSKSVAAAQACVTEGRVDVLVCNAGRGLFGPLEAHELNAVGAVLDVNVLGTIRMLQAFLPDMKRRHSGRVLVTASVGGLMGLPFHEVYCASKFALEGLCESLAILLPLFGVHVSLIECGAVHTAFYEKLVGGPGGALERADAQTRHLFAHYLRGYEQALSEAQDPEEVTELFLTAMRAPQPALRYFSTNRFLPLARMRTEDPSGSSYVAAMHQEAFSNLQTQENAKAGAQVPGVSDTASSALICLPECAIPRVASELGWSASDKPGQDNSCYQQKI

[1] = read-out: Inhibition @ 1 μM m17β-HSD2
[2] = read-out: Inhibition @ 1 μM m17β-HSD1
[3] = read-out: % inhibition m17β-HSD2 @ 1 μM
[4] = read-out: % inhibition m17β-HSD1 @ 1 μM

How did the inhibition at 1 µM (human 17β-HSD2) turn out when `O=C(c1ccc(-c2cccnc2)s1)c1c(F)ccc(O)c1F` [Compound 9, (2,6-Difluoro-3-hydroxy-phenyl)-(5-pyridin-3-yl-thiophen-2-yl)-methanone] was run?
Its inhibition at 1 µM is 64%.

And the inhibition at 1 µM (human 17β-HSD1)?
Its inhibition at 1 µM is 57%.

What about the inhibition at 1 µM (mouse 17β-HSD2; [1]) of the same compound?
The inhibition at 1 µM was 23%.

What about the inhibition at 1 µM (mouse 17β-HSD1; [2]) of the same compound?
The inhibition at 1 µM was 14%.

How did the IC50 (human 17β-HSD2; read-out: IC50 [nM] h17β-HSD2) turn out when `O=C(c1ccc(-c2cc(F)c(OC(F)F)c(F)c2)s1)c1c(F)ccc(O)c1F` [Compound 17, (2,6-Difluoro-3-hydroxy-phenyl)-[5-(4-difluoromethoxy-3,5-difluoro-phenyl)-thiophen-2-yl]-methanone] was run?
Its IC50 is 36 nM.

And the IC50 (human 17β-HSD1)?
Its IC50 is 7 nM.

And the inhibition at 1 µM (mouse 17β-HSD2; [1])?
The inhibition at 1 µM was 74%.

And the inhibition at 1 µM (mouse 17β-HSD1; [2])?
The inhibition at 1 µM was 47%.

For `Cc1c(O)cccc1C(=O)c1ccc(-c2ccc(O)c(Cl)c2)s1` [E, reference compound], which inhibition at 1 µM (human 17β-HSD2) is on record?
The inhibition at 1 µM was 93%.

What about the inhibition at 1 µM (human 17β-HSD1) of the same compound?
The inhibition at 1 µM was 76%.

What about the inhibition at 1 µM (mouse 17β-HSD2; [3]) of the same compound?
The inhibition at 1 µM was 92%.

What about the inhibition at 1 µM (mouse 17β-HSD1; [4]) of the same compound?
Its inhibition at 1 µM is 14%.

What does the source list for `COc1c(Cl)cc(-c2ccc(C(=O)c3c(F)ccc(OC(C)=O)c3F)s2)cc1Cn1ccnn1` [Compound 31a, Acetic acid 3-[5-(3-chloro-4-methoxy-5-[1,2,3]triazol-1-ylmethyl-phenyl)-thiophene-2-carbonyl]-2,4-difluoro-phenylester]?
inhibition at 1 µM (human 17β-HSD2): 32%; inhibition at 1 µM (human 17β-HSD1): 28%; inhibition at 1 µM (mouse 17β-HSD1; [2]): 20%

Which results are given for `COc1c(C)cc(-c2ccc(C(=O)c3cc(F)c(F)c(O)c3F)s2)cc1C` [Compound 46, (5-(4-Methoxy-3,5-dimethylphenyl)thiophen-2-yl)(2,4,5-trifluoro-3-hydroxyphenyl)methanone]?
IC50 (human 17β-HSD2; read-out: IC50 [nM] h17β-HSD2): 2.3 nM; IC50 (human 17β-HSD1): 1.2 nM; inhibition at 0.1 µM (mouse 17β-HSD2; read-out: % inhibition m17β-HSD2 @ 100 nM): 16%; inhibition at 1 µM (mouse 17β-HSD1; [2]): 13.4%

With `COc1ccc(-c2sc(C(=O)c3c(F)ccc(O)c3F)cc2C)cc1Cl` [Compound 13, [5-(3-Chloro-4-methoxy-phenyl)-4-methyl-thiophen-2-yl]-(2,6-difluoro-3-hydroxy-phenyl)-methanone] as the compound, how does the IC50 (human 17β-HSD2; read-out: IC50 [nM] h17β-HSD2) read?
The IC50 was 52 nM.

What about the IC50 (human 17β-HSD1) of the same compound?
Its IC50 is 5.5 nM.

What about the inhibition at 1 µM (mouse 17β-HSD2; [1]) of the same compound?
The inhibition at 1 µM was 65%.

And the inhibition at 1 µM (mouse 17β-HSD1; [2])?
The inhibition at 1 µM was 25%.

What does the source list for `O=C(c1cccc(O)c1)c1ccc(-c2ccc(O)c(Cl)c2)s1` [D, reference compound]?
IC50 (human 17β-HSD2): 240 nM; IC50 (human 17β-HSD1): 5 nM; inhibition at 1 µM (mouse 17β-HSD2; [3]): 9%; inhibition at 1 µM (mouse 17β-HSD1; [4]): 42%

For `O=C(c1ccc(-c2ccc3cc[nH]c3c2)s1)c1cc(F)c(F)c(O)c1F` [Compound 43, (5-(1H-Indol-6-yl)thiophen-2-yl)(2,4,5-trifluoro-3-hydroxyphenyl)methanone], which IC50 (human 17β-HSD2; read-out: IC50 [nM] h17β-HSD2) is on record?
The IC50 was 7.5 nM.

And the IC50 (human 17β-HSD1)?
Its IC50 is 28.8 nM.

What about the IC50 (mouse 17β-HSD2; read-out: IC50 m17β-HSD2) of the same compound?
The IC50 was 113 nM.

And the IC50 (mouse 17β-HSD1; recombinant mouse enzyme, E1 10 nM, NADPH, read-out: IC50 m17β-HSD1)?
The IC50 was 1140 nM.

How did the IC50 (human 17β-HSD2; read-out: IC50 [nM] h17β-HSD2) turn out when `O=C(c1ccc(Br)s1)c1cc(F)c(F)c(O)c1F` [Compound 1g, (5-Bromo-thiophen-2-yl)-(2,4,5-trifluoro-3-hydroxy-phenyl)-methanone] was run?
The IC50 was 27 nM.

What about the IC50 (human 17β-HSD1) of the same compound?
The IC50 was 130 nM.

What about the inhibition at 1 µM (mouse 17β-HSD2; [3]) of the same compound?
Its inhibition at 1 µM is 44%.

And the inhibition at 1 µM (mouse 17β-HSD2; [1])?
The inhibition at 1 µM was 44%.

What about the inhibition at 1 µM (mouse 17β-HSD1; [4]) of the same compound?
Its inhibition at 1 µM is 11%.

And the inhibition at 1 µM (mouse 17β-HSD1; [2])?
The inhibition at 1 µM was 11%.

How did the inhibition at 0.01 µM (human 17β-HSD2) turn out when `COc1cccc(-c2ccc(C(=O)c3cc(F)c(F)c(O)c3F)s2)c1` [Compound 52, (5-(3-Methoxyphenyl)thiophen-2-yl)(2,4,5-trifluoro-3-hydroxyphenyl)methanone] was run?
Its inhibition at 0.01 µM is 47%.

What about the inhibition at 0.01 µM (human 17β-HSD1) of the same compound?
Its inhibition at 0.01 µM is 75%.

And the inhibition at 0.05 µM (mouse 17β-HSD2)?
Its inhibition at 0.05 µM is 15%.

Which results are given for `O=C(c1ccc(-c2cc(Cl)c(O)c(Cl)c2)s1)c1cc(F)c(F)c(O)c1F` [Compound 49, (5-(3,5-Dichloro-4-hydroxyphenyl)thiophen-2-yl)(2,4,5-trifluoro-3-hydroxyphenyl)methanone]?
IC50 (human 17β-HSD2; read-out: IC50 [nM] h17β-HSD2): 11.2 nM; IC50 (human 17β-HSD1): 9.1 nM; inhibition at 1 µM (mouse 17β-HSD1; [2]): 13.8%

Which results are given for `NS(=O)(=O)c1cccc(-c2ccc(C(=O)c3c(F)ccc(O)c3F)s2)c1` [Compound 76, 3-(5-(2,6-Difluoro-3-hydroxybenzoyl)thiophen-2-yl)benzenesulfonamide]?
inhibition at 0.01 µM (human 17β-HSD2): 26%; inhibition at 0.01 µM (human 17β-HSD1): 34%; inhibition at 0.05 µM (mouse 17β-HSD2): 1.8%

Which results are given for `NS(=O)(=O)c1ccc(-c2ccc(C(=O)c3c(F)ccc(O)c3F)s2)cc1` [Compound 75, 4-(5-(2,6-Difluoro-3-hydroxybenzoyl)thiophen-2-yl)benzenesulfonamide]?
inhibition at 0.01 µM (human 17β-HSD2): 54%; inhibition at 0.01 µM (human 17β-HSD1): 18%; inhibition at 0.05 µM (mouse 17β-HSD2): 10%
